Measurements from patent EP0327365B1, “Improvements in or relating to modified haptens useful as imaging and therapeutic agents” (HYBRITECH INCORPORATED, priority 1988, dated 1989).

What was measured:
[1] = test system: T-380 tumors; experiment: Hapten biodistribution, premix protocol with bifunctional antibody ECH037.2; format: in vivo, nude mice; parameters: TOTAL RECOV: unit not given here; details: for % DOSE PER GRAM, KIDNEY / % DOSE PER GRAM, LIVER / % DOSE PER GRAM, TUMOR / FECES / URINE / % DOSE PER GRAM, BLOOD / TUMOR/BLOOD / TOTAL RECOV: premix with 20 µg ECH037.2; for % DOSE PER GRAM, BLOOD: 111In-labeled hapten i.v.; for TUMOR/BLOOD: ratio; for Percent Injected Dose in Feces: premix protocol (Table VI); for %Dose per Gram, Blood / %Dose per Gram, Tumor: premix with 20 µg ECH037.2 (Table VIII)
Method: (§1) Two protocols were used for examining the biodistribution of the derivatized haptens in the presence of the bifunctional antibody ECH037.2. In a premix protocol, ECH037.2 and the derivatized hapten were combined prior to injection in the animals. In the prelocalization protocol, ECH037.2 was injected into the animals, and the antibody was allowed to prelocalize for 24 hours prior to injection of the radiolabeled hapten.
(§2) Biodistribution studies were performed in nude mice carrying subcutaneous implants of the human colon carcinoma cell line T-380 which expresses the carcinoembryonic antigen (CEA) recognized by ECH037.2. Briefly, Balb/C Nu/Nu mice were injected subcutaneously with a minced preparation of T-380 tumor implants and maintained for approximately two weeks, or until the tumor implant had grown to a size of approximately 0.5 grams as described by Hagan, P.L., et al. J. Nuc. Med., 26 1418-1423 (1985). Mice were kept in a sterile environment to prevent complications due to bacterial or viral infections. Biodistributions were performed as described by Halpern, S., et al., Cancer Res. 43, 5347-5355 (1983). Briefly, the radiolabeled haptens were injected intravenously in […], and the pharmacokinetics were evaluated at several time points post-injection. At these times, mice were sacrificed and weighed. Organs were removed, their weight recorded, and each organ was then washed in sterile PBS, pH 7.0, and fixed in formalin solution. Samples of blood, urine and feces also were collected and their weight similarly recorded. The organs, or a portion thereof, were transferred to clean tubes and their radioactive content was determined in a well-type gamma-counter.
(§3) Relative radioactive content of each organ was expressed as a percentage of injected dose per organ.
To indium-label the haptens of the invention 10 »l of 0.1 mM ligand was combined with X »l of ¹¹¹InCl₃ (in 50 mM HCl) and (x+10) »l of 0.26 M ammonium citrate, pH 6.0. X is calculated by the following equation: X = (200 »Ci)/(A »Ci/»l) [formula] where A is the specific activity of the ¹¹¹In.
The labeling was done in an acid-washed microfuge tube. After combining all of the components above, the solution was vortexed and allowed to stand at room temperature for 15 minutes.
Incorporation of the ¹¹¹In into the chelating agent was determined by TLC on silica in a methanol/aqueous ammonium acetate solvent system as described by Meares, et al. (Anal. Biochem., 142, 68-75 (1984)). Greater than 95% incorporation of the radioactivity into the chelate was required for the sample to be submitted for a biodistribution assay.
Prior to injection the ¹¹¹In-labeled hapten was diluted into freshly prepared isotonic sodium bicarbonate (1.39% w/v) containing 1 mg/ml normal human serum albumin (Buminate, 25% solution, Travenol Laboratories, Glendale, California) to which the bifunctional antibody had been added. The final composition of the solution was 0.2 mg/ml ECH037.2, 0.5 »M chelate, 0.1 »Ci/»l ¹¹¹In, all in a volume of 2.0 ml. For the biodistribution studies, 100 »l of the solution was injected into the tail vein of each animal.

[2] = test system: T-380 tumors; experiment: Hapten biodistribution, prelocalization protocol with bifunctional antibody ECH037.2; format: in vivo, nude mice; details: in words
Method: as §1, §2, §3
To indium-label the chelating agents for the prelocalization protocol, 5 »l of 0.1 mM chelating agent was combined with X »l of ¹¹¹InCl₃ (in 50 mM HCl) and (x+5) »l of 0.26 M ammonium citrate, pH 6.0. X was calculated by the following equation: X = 200 »Ci/A »Ci/»l [formula] where A is the specific activity of the ¹¹¹InCl₃ solution. The solution was vortexed and allowed to stand at room temperature for 15 minutes, after which incorporation of ¹¹¹In label into the chelating agent was determined as described for the premix protocol. If at least 95 percent of the ¹¹¹In was bound by the chelating agent, the material was then diluted to a final volume of 2 ml with isotonic (1.39 percent, w/v) sodium bicarbonate containing 1 mg/ml normal human serum albumin. This material (100 »l) then was injected into each tail vein of mice which had each been injected 24 hours earlier with 5 »g of ECH037.2 in 100 »l isotonic sodium bicarbonate containing 1 mg/ml normal human serum albumin.

[3] = test system: monoclonal antibody CHA255; experiment: Determination of hapten-antibody dissociation rates; format: binding, BALB/c mice; details: 22°C; indium complex of hapten from CHA255 after 100 fold excess of indium-115 loaded hapten
Method: Hapten-antibody dissociation rates were determined using monoclonal antibody CHA255, prepared as described in Example 2A, by measuring the quantity of ¹¹¹In³⁺ chelate released from the antibody hapten complex as a function of time after addition of a 100 fold excess (over antibody binding sites) of indium-115 loaded hapten. Thus, for each hapten, a 700 »l solution was prepared containing: antibody at a concentration of 160 nM; indium loaded hapten, trace labeled with ¹¹¹In (total concentration = 160 nM); normal human serum albumin at a total concentration of 1.5 mg/mL; and isotonic phosphate buffered saline, (10 mM PO₄²⁻, 150 mM NaCl, pH 7.2). Indium-115 loaded hapten was added to a final Concentration of […]. Reactions were stirred by placing the sample containers ir a rack mounted on a vortexer head.
At various times after addition of the excess hapten, […] portions of the reaction solutions were transferred to Centrifree tubes (Amicon Corperation, Danvers, Massachusetts) and centrifuged at 1500xg for eight to ten minutes. The reaction time was taken to be the time between addition of the excess hapten and the time the centrifuge reached the desired velocity. Six timepoints, each in duplicate, were obtained over a range of about two reaction half-lives for each rate constant determination. A 200 »l portion from each centrifuged and uncentrifuged solution was then counted for ¹¹¹In. The relative concentration of free hapten was taken to be the ratio of counts in the centrifuged solution to the uncentrifuged solution at each timepoint. Times were recorded to the nearest tenth of a minute.
Room temperature rate constants were measured without the aid of a constant temperature bath. The ambient temperature remained at 22°±1 C.
Rate constants and standard deviations were obtained from a plot of the logarithm of relative complex concentration vs. time. Data were analyzed using the linear regression module of the RS/1 Program (BBN Software Products Corporation, Cambridge, Massachusetts).
Control samples were included in each experiment to determine: A) that the initial condition of 100% of labeled hapten bound to antibody was met, and B) that in the absence of antibody, 100% of counts were able to penetrate the Centrifree membrane. […]

| SMILES | % DOSE PER GRAM, KIDNEY ([1]; 24 hours) [% DOSE PER GRAM] | % DOSE PER GRAM, LIVER ([1]; 24 hours) [% DOSE PER GRAM] | % DOSE PER GRAM, TUMOR ([1]; 24 hours) [% DOSE PER GRAM] | FECES ([1]; 24 hours) | URINE ([1]; 24 hours) | % DOSE PER GRAM, BLOOD ([1]; 24 hours) [% DOSE PER GRAM] | TUMOR/BLOOD ([1]; 24 hours) | Percent Injected Dose in Feces ([1]; 24 hrs.) [Percent Injected Dose] | % DOSE PER GRAM, KIDNEY ([1]; 48 hours) [% DOSE PER GRAM] | % DOSE PER GRAM, LIVER ([1]; 48 hours) [% DOSE PER GRAM] | % DOSE PER GRAM, TUMOR ([1]; 48 hours) [% DOSE PER GRAM] | FECES ([1]; 48 hours) | URINE ([1]; 48 hours) | % DOSE PER GRAM, BLOOD ([1]; 48 hours) [% DOSE PER GRAM] | TUMOR/BLOOD ([1]; 48 hours) | Percent Injected Dose in Feces ([1]; 48 hrs.) [Percent Injected Dose] | TOTAL RECOV ([1]; 24 hours) | %Dose per Gram, Blood ([1]; 24 hrs. post-injection) [%Dose per Gram] | TOTAL RECOV ([1]; 48 hours) | t1/2, Dissociation Half-Lives [3] [h] | other results |
| --- | --- | --- | --- | --- | --- | --- | --- | --- | --- | --- | --- | --- | --- | --- | --- | --- | --- | --- | --- | --- | --- |
| O=C(O)CN(CC(=O)O)CC(Cc1ccc(NC(=S)NCCO)cc1)N(CC(=O)O)CC(=O)O (stereo not drawn) [EOTUBE] | 2.8 | 3.8 | 12.5 | 6.2% of total injected dose | 25.9% of total injected dose | 9.3 | 1.34 | 6.2 | 1.4 | 3.1 | 14.5 | 7.9% of total injected dose | 49.3% of total injected dose | 4.7 | 3.09 | 7.9 |  |  |  |  | tumor uptake ([1]; premix protocol, Figure 1 (24 and 48 hours), in words): outstanding tumor uptake; tumor/blood ratios ([1]; premix protocol, Figure 2 (24 and 48 hours), in words): good tumor/blood ratios; tumor/organ ratios ([2]; 24 hours (Figure 7)): high tumor/organ ratios; tumor uptake ([2]; all time points (Figures 3-5)): high tumor uptake at all time points |
| NCCNC(=S)Nc1ccc(CC(CN(CC(=O)O)CC(=O)O)N(CC(=O)O)CC(=O)O)cc1 (stereo not drawn) [NUBE] | 4.0 | 3.1 | 8.5 | 5.9% of total injected dose | 42.5% of total injected dose | 5.9 | 1.44 | 5.9 | 2.5 | 1.9 | 8.1 | 12.9% of total injected dose | 52.6% of total injected dose | 2.0 | 4.0 | 12.9 | 66.3 | 5.8 | 74.1 | 0.76 | %Dose per Gram, Tumor ([1]; 24 hrs. post-injection): 11.7 %Dose per Gram; %Dose per Gram, Blood ([1]; 48 hrs. post-injection): 3.3 %Dose per Gram; %Dose per Gram, Tumor ([1]; 48 hrs. post-injection): 12.2 %Dose per Gram; %Dose per Gram, Blood ([1]; 72 hrs. post-injection): 0.7 %Dose per Gram; %Dose per Gram, Tumor ([1]; 72 hrs. post-injection): 10.5 %Dose per Gram |
| O=C(O)CCNC(=S)Nc1ccc(CC(CN(CC(=O)O)CC(=O)O)N(CC(=O)O)CC(=O)O)cc1 (stereo not drawn) [PATUBE] | 2.2 | 3.3 | 10.6 | 5.0% of total injected dose | 23.6% of total injected dose | 12.2 | 0.87 | 5.0 | 1.7 | 2.4 | 9.8 | 8.9% of total injected dose | 36.0% of total injected dose | 7.6 | 1.29 | 8.9 | 53.7 |  | 61.7 | 1.46 |  |

Continued, in another order:

| % DOSE PER GRAM, KIDNEY ([1]; 24 hours) [% DOSE PER GRAM] | % DOSE PER GRAM, LIVER ([1]; 24 hours) [% DOSE PER GRAM] | % DOSE PER GRAM, TUMOR ([1]; 24 hours) [% DOSE PER GRAM] | FECES ([1]; 24 hours) | URINE ([1]; 24 hours) | % DOSE PER GRAM, BLOOD ([1]; 24 hours) [% DOSE PER GRAM] | TUMOR/BLOOD ([1]; 24 hours) | Percent Injected Dose in Feces ([1]; 24 hrs.) [Percent Injected Dose] | % DOSE PER GRAM, KIDNEY ([1]; 48 hours) [% DOSE PER GRAM] | % DOSE PER GRAM, LIVER ([1]; 48 hours) [% DOSE PER GRAM] | % DOSE PER GRAM, TUMOR ([1]; 48 hours) [% DOSE PER GRAM] | FECES ([1]; 48 hours) | URINE ([1]; 48 hours) | % DOSE PER GRAM, BLOOD ([1]; 48 hours) [% DOSE PER GRAM] | TUMOR/BLOOD ([1]; 48 hours) | Percent Injected Dose in Feces ([1]; 48 hrs.) [Percent Injected Dose] | TOTAL RECOV ([1]; 24 hours) | %Dose per Gram, Blood ([1]; 24 hrs. post-injection) [%Dose per Gram] | TOTAL RECOV ([1]; 48 hours) | SMILES | t1/2, Dissociation Half-Lives [3] [h] | other results |
| --- | --- | --- | --- | --- | --- | --- | --- | --- | --- | --- | --- | --- | --- | --- | --- | --- | --- | --- | --- | --- | --- |
| 2.9 | 3.6 | 12.4 | 13.9% of total injected dose | 20.3% of total injected dose | 8.9 | 1.39 | 13.9 | 1.7 | 2.3 | 10.6 | 21.7% of total injected dose | 24.5% of total injected dose | 5.4 | 1.96 | 27.1 | 57.2 |  | 62.4 | O=C(O)CN(CC(=O)O)CC(Cc1ccc(NC(=S)Nc2ccccc2)cc1)N(CC(=O)O)CC(=O)O (stereo not drawn) [PHTUBE] | 1.25 |  |
| 2.4 | 4.0 | 8.5 | 4.1% of total injected dose | 23.7% of total injected dose | 8.0 | 1.06 | 4.1 | 1.1 | 1.6 | 6.5 | 9.8% of total injected dose | 48.8% of total injected dose | 3.8 | 1.71 | 9.9 | 48.2 | 8.0 | 69.5 | NC(=S)Nc1ccc(CC(CN(CC(=O)O)CC(=O)O)N(CC(=O)O)CC(=O)O)cc1 (stereo not drawn) [TUBE] | 1.4 | %Dose per Gram, Tumor ([1]; 24 hrs. post-injection): 8.5 %Dose per Gram; %Dose per Gram, Blood ([1]; 48 hrs. post-injection): 3.8 %Dose per Gram; %Dose per Gram, Tumor ([1]; 48 hrs. post-injection): 6.5 %Dose per Gram; %Dose per Gram, Blood ([1]; 72 hrs. post-injection): 1.7 %Dose per Gram; %Dose per Gram, Tumor ([1]; 72 hrs. post-injection): 5.3 %Dose per Gram |
